Source: patent US20140011853A1, “SUBSTITUTED 3-(BIPHENYL-3-YL)-8,8-DIFLUORO-4-HYDROXY-1-AZASPIRO[4.5]DEC-3-EN-2-ONES FOR THERAPY” (BAYER INTELLECTUAL PROPERTY GMBH, priority 2011, published 2014)

What was measured:
[1] = PC-3 prostate carcinoma xenograft model in the mouse; details: male, NMRI-nude (nu/nu), mouse, in vivo, po
Experimental: (§1) Xenograft models in immunosuppressed mice were used to determine the antitumour activity in living organisms.
(§2) Use was made primarily of a prostate carcinoma model with hormone-independent human PC-3 cells in male nude mice (NMRI-nude (nu/nu) mice, Taconic M&B A/S). To this end, 3 million tumour cells (suspended in medium+Matrigel) 1:1, final 0.1 ml) were injected subcutaneously into the side of each animal. When the tumours extended to an area of 20-30 mm^2., the mice were randomized into therapy groups and therapy was initiated. […] At this point in time, the experiment was terminated in all groups and the prepared tumours were weighed. The T/C value was calculated as primary success parameter using the effect on the final tumour weight: mean tumour weight in the treatment group divided by mean of the tumour weight in the vehicle group.
(§3) Administration route: per os Vehicle: PEG400/ethanol/Solutol HS 15 (70/5/25, v/v/v) Administration volume: 10 ml/kg

[2] = system: PC-3 prostate carcinoma xenograft; assay: as above; details: for T/C: 17 days, 2 administrations per day
Experimental: as §1, §2, §3

[3] = system: Spodoptera frugiperda; assay: Spodoptera frugiperda test (SPODFR spray treatment); assay type: in vivo; details: 500 g/ha, after 7 days
[4] = Prediction of human pharmacokinetic parameters and human therapeutic dosage
Experimental: The human pharmacokinetic (PK) parameters (Table 9) were predicted based on the in vivo PK parameters obtained for rats (single species scaling), taking into account the interspecies differences in the free fraction (fu) in the plasma. The effective AUC (area under curve) was determined based on the measured plasma concentration time profile for in vivo efficacy in the PC3 tumour model of the mouse (nu/nu mouse).

[5] = Plasma protein binding by equilibrium dialysis, rat; assay type: in vitro ADME; details: read-out: fu (rat)
Experimental: The binding of test substances to plasma proteins is determined by equilibrium dialysis by means of the Ht-dialysis apparatus (96-well) made of Teflon and a semipermeable membrane (regenerated cellulose, MWCO 12-14K). This separates 150 μl each of a plasma side and a buffer side (50 mM phosphate buffer). The test substance is added in 2 concentrations (usually 3 and 0.3 μM) to the plasma side and binds to plasma proteins. The unbound fraction of the test substance passes through the membrane and is distributed on either side until equilibrium is established (after approx. 6-8 h at 37° C.). The substance concentration on the buffer side and the plasma side is determined by LC-MS analysis. For this, both sides are brought by dilution with buffer or plasma to the same matrix (10% plasma) and then precipitated with methanol. The free (unbound) fraction (fu) is calculated from the quotient of the buffer and plasma concentration. Stability tests and recovery tests are run concurrently as controls. In addition, the substance in buffer is dialysed against buffer, to check the nonspecific binding to apparatus and membrane and establishment of equilibrium. Because during incubation the osmotic pressure of the plasma proteins leads to dilution of the plasma (volume shift), this possible error is determined by weighing blank plasma samples and is included in the calculation of fu. Establishment of equilibrium and plasma stability should have a value not lower than 80% and the recovery should be at least 30%. A free fraction of <1% is regarded as high, between 1 and 10% as moderate and >10% as low plasma protein binding.

[6] = Maximum tolerated dose (MTD) in the mouse; assay type: in vivo; details: for Deaths: 21 days; for MTD at 21 days: female, NMRI-nude (nu/nu), mouse, in vivo, oral, 21-day treatment
Experimental: The MTD was defined as the highest dose which could be administered without any animal dying during the treatment phase, and without any body weight loss of more than 10% compared to the initial weight.
Example 1-1 was administered to female nude mice (NMRI nu/nu):
The treatment phase was followed by an observation phase of 21 days.

[7] = Membrane affinity logMA (MA-Transil); assay type: physicochemical; details: buffer pH 7.4
[8] = system: human ACC1; assay: Human ACC1 enzyme assay (ADP-Glo); assay type: biochemical

Cc1ccc(-c2ccc(Cl)c(F)c2)cc1C1=C(O)C2(CCC(F)(F)CC2)NC1=O [Example 1-1, 3-(4′-Chloro-3′-fluoro-4-methylbiphenyl-3-yl)-8,8-difluoro-4-hydroxy-1-azaspiro[4.5]dec-3-en-2-one]
AUC ([1]; 40 mg/kg): 376 µg·h/mL | AUC ([1]; 80 mg/kg): 6080 µg·h/mL | T/C ([2]; 40 mg/kg per os): 0.26 | T/C ([2]; 80 mg/kg day 1-3, 70 mg/kg from day 4 onwards, per os): 0.26 | Reduction in body weight in individual animals ([2]; 80 mg/kg, 2 times per day, after 3 days): more than 10% | effect (kill of caterpillars) [3]: 100% | calc. AUC (human) ([4]; from mouse dosage 40 mg/kg 2 × per day): 1882 µg·h/mL | calc. AUC (human) ([4]; from mouse dosage 80 mg/kg 2 × per day): 3041 µg·h/mL | pred. CL (human) ([4]; predicted (fu-corrected), single species scaling from rat): 3 mL/h/kg | fraction unbound [5]: 0.0027 | Deaths ([6]; 12.5 mg/kg per os, 1 administration per day): 0 of 4 | Deaths ([6]; 25 mg/kg per os, 1 administration per day): 0 of 4 | Deaths ([6]; 50 mg/kg per os, 1 administration per day): 0 of 4 | Deaths ([6]; 50 mg/kg per os, 2 administrations per day): 0 of 4 | Deaths ([6]; 75 mg/kg per os, 1 administration per day): 0 of 4 | Deaths ([6]; 100 mg/kg per os, 1 administration per day): 0 of 4 | MTD at 21 days ([6]; 50 mg/kg, administration twice per day): > 50 mg/kg | MTD at 21 days ([6]; administration once per day): > 100 mg/kg

Cc1ccc(-c2ccc(Cl)cc2)cc1C1=C(O)C2(CCC(F)(F)CC2)NC1=O [Example 1-2, 3-(4′-Chloro-4-methylbiphenyl-3-yl)-8,8-difluoro-4-hydroxy-1-azaspiro[4.5]dec-3-en-2-one]
logMA [7]: 1.83 (1.7-1.9, n = 3) | effect (kill of caterpillars) [3]: 100% | melting point: 105 °C | Selectivity ACC1 vs. ACC2 (mean of the individual measurements ± standard deviation) [8]: 13.4 ± 4.5
